From ChEMBL document CHEMBL3045762, “Studies on arylfuran derivatives. Part XI. Synthesis, characterisation and biological studies on some Mannich bases carrying 2,4-dichlorophenylfurfural moiety” (2000)
Activity calls are given as the source filed them. No cut-off for these calls is given here.

Assays:
Digitaria sanguinalis [1] = assay: Post-emergence herbicidal activity against Digitaria sanguinalis (hairy crabgrass) assessed as reduction of seed germination at 1000 ppm after 5 to 25 days by pot test; type: functional, organism-based
Amaranthus viridis [2] = assay: Pre-emergence herbicidal activity against Amaranthus viridis assessed as reduction of seed germination at 1000 ppm after 7 to 21 days by pot test; type: functional, organism-based
Digitaria sanguinalis [3] = assay: Pre-emergence herbicidal activity against Digitaria sanguinalis (hairy crabgrass) assessed as reduction of seed germination at 1000 ppm after 7 to 21 days by pot test; type: functional, organism-based
Alternaria solani = assay: Antifungal activity against Alternaria solani assessed as fungal growth (reference value: 52 mm); type: functional
Plasmopara viticola = assay: Antifungal activity against Plasmopara viticola assessed as infection (reference value: 100%); type: functional
Fusarium sp. = assay: Antifungal activity against Fusarium sp. assessed as fungal growth (reference value: 77 mm); type: functional
Parthenium hysterophorus [4] = assay: Post-emergence herbicidal activity against Parthenium hysterophorus assessed as reduction of seed germination at 1000 ppm after 5 to 25 days by pot test; type: functional, organism-based
Euphorbia hirta [5] = assay: Post-emergence herbicidal activity against Euphorbia hirta assessed as reduction of seed germination at 1000 ppm after 5 to 25 days by pot test; type: functional, organism-based
Amaranthus viridis [6] = assay: Post-emergence herbicidal activity against Amaranthus viridis assessed as reduction of seed germination at 1000 ppm after 5 to 25 days by pot test; type: functional, organism-based
Cynodon dactylon [7] = assay: Post-emergence herbicidal activity against Cynodon dactylon assessed as reduction of seed germination at 1000 ppm after 5 to 25 days by pot test; type: functional, organism-based
Parthenium hysterophorus [8] = assay: Post-emergence herbicidal activity against Parthenium hysterophorus assessed as reduction of seed germination at 1.22 ppm after 5 to 25 days by pot test; type: functional, organism-based
Euphorbia hirta [9] = assay: Post-emergence herbicidal activity against Euphorbia hirta assessed as reduction of seed germination at 1.22 ppm after 5 to 25 days by pot test; type: functional, organism-based
Cynodon dactylon [10] = assay: Post-emergence herbicidal activity against Cynodon dactylon assessed as reduction of seed germination at 1.22 ppm after 5 to 25 days by pot test; type: functional, organism-based
Amaranthus viridis [11] = assay: Post-emergence herbicidal activity against Amaranthus viridis assessed as reduction of seed germination at 1.22 ppm after 5 to 25 days by pot test; type: functional, organism-based
Digitaria sanguinalis [12] = assay: Post-emergence herbicidal activity against Digitaria sanguinalis (hairy crabgrass) assessed as reduction of seed germination at 1.22 ppm after 5 to 25 days by pot test; type: functional, organism-based
Amaranthus viridis [13] = assay: Post-emergence herbicidal activity against Amaranthus viridis assessed as reduction of seed germination at 0.48 ppm after 5 to 25 days by pot test; type: functional, organism-based
Cynodon dactylon [14] = assay: Post-emergence herbicidal activity against Cynodon dactylon assessed as reduction of seed germination at 0.48 ppm after 5 to 25 days by pot test; type: functional, organism-based
Digitaria sanguinalis [15] = assay: Post-emergence herbicidal activity against Digitaria sanguinalis (hairy crabgrass) assessed as reduction of seed germination at 0.48 ppm after 5 to 25 days by pot test; type: functional, organism-based
Euphorbia hirta [16] = assay: Post-emergence herbicidal activity against Euphorbia hirta assessed as reduction of seed germination at 0.48 ppm after 5 to 25 days by pot test; type: functional, organism-based
Parthenium hysterophorus [17] = assay: Post-emergence herbicidal activity against Parthenium hysterophorus assessed as reduction of seed germination at 0.48 ppm after 5 to 25 days by pot test; type: functional, organism-based
Amaranthus viridis [18] = assay: Pre-emergence herbicidal activity against Amaranthus viridis assessed as reduction of seed germination at 1 ppm after 7 to 21 days by pot test; type: functional, organism-based
Digitaria sanguinalis [19] = assay: Pre-emergence herbicidal activity against Digitaria sanguinalis (hairy crabgrass) assessed as reduction of seed germination at 1 ppm after 7 to 21 days by pot test; type: functional, organism-based
Amaranthus viridis [20] = assay: Pre-emergence herbicidal activity against Amaranthus viridis assessed as reduction of seed germination at 1.50 ppm after 7 to 21 days by pot test; type: functional, organism-based
Digitaria sanguinalis [21] = assay: Pre-emergence herbicidal activity against Digitaria sanguinalis (hairy crabgrass) assessed as reduction of seed germination at 1.50 ppm after 7 to 21 days by pot test; type: functional, organism-based

With `Fc1ccc(NCn2nc(COc3ccc(Cl)cc3)n(/N=C/c3ccc(-c4ccc(Cl)cc4Cl)o3)c2=S)cc1Cl` the Activity (Digitaria sanguinalis [1]) was “inactive”, the Activity (Amaranthus viridis [2]) was “inactive” and the Activity (Digitaria sanguinalis [3]) was “inactive”. It also gave an Activity (Alternaria solani) of 52 mm, an Activity (Plasmopara viticola) of 100% and an Activity (Fusarium sp.) of 75 mm. The Activity (Parthenium hysterophorus [4]) was “inactive”, the Activity (Euphorbia hirta [5]) was “inactive” and the Activity (Amaranthus viridis [6]) was “inactive”. The Activity (Cynodon dactylon [7]) was “inactive”.
In the case of `Fc1ccc(NCn2nc(COc3ccccc3Cl)n(/N=C/c3ccc(-c4ccc(Cl)cc4Cl)o3)c2=S)cc1Cl`, the Activity (Digitaria sanguinalis [1]) is reported as “inactive”, the Activity (Amaranthus viridis [2]) is reported as “inactive” and the Activity (Digitaria sanguinalis [3]) is reported as “inactive”. For the same molecule, the Activity (Alternaria solani) was 57 mm, the Activity (Plasmopara viticola) was 100% and the Activity (Fusarium sp.) was 75 mm. For the same molecule, the Activity (Parthenium hysterophorus [4]) was “inactive”, the Activity (Euphorbia hirta [5]) was “inactive” and the Activity (Amaranthus viridis [6]) was “inactive”. The Activity (Cynodon dactylon [7]) was “inactive”.
With `Cc1cc(OCc2nn(CNc3ccc(F)c(Cl)c3)c(=S)n2/N=C/c2ccc(-c3ccc(Cl)cc3Cl)o2)ccc1Cl` the Activity (Digitaria sanguinalis [1]) was “inactive”, the Activity (Amaranthus viridis [2]) was “inactive” and the Activity (Digitaria sanguinalis [3]) was “inactive”. The Activity (Alternaria solani) was 49 mm, the Activity (Plasmopara viticola) was 100% and the Activity (Fusarium sp.) was 72 mm. For the same molecule, the Activity (Parthenium hysterophorus [4]) was “inactive”, the Activity (Euphorbia hirta [5]) was “inactive” and the Activity (Amaranthus viridis [6]) was “inactive”. The Activity (Cynodon dactylon [7]) was “inactive”.
In the case of `O=C(O)CNCP(=O)(O)O`, the Activity (Parthenium hysterophorus [8]) is reported as “Active”, the Activity (Euphorbia hirta [9]) is reported as “Active” and the Activity (Cynodon dactylon [10]) is reported as “Active”. The Activity (Amaranthus viridis [11]) was “Active” and the Activity (Digitaria sanguinalis [12]) was “Active”.
With `Cc1cc(OCc2n[nH]c(=S)n2/N=C/c2ccc(-c3ccc(Cl)cc3Cl)o2)ccc1Cl` the Activity (Digitaria sanguinalis [1]) was “inactive”, the Activity (Amaranthus viridis [2]) was “inactive” and the Activity (Digitaria sanguinalis [3]) was “inactive”. The Activity (Alternaria solani) was 56 mm, the Activity (Plasmopara viticola) was 100% and the Activity (Fusarium sp.) was 76 mm. For the same molecule, the Activity (Parthenium hysterophorus [4]) was “inactive”, the Activity (Euphorbia hirta [5]) was “inactive” and the Activity (Amaranthus viridis [6]) was “inactive”. The Activity (Cynodon dactylon [7]) was “inactive”.
With `S=c1[nH]nc(COc2ccc(Cl)cc2)n1/N=C/c1ccc(-c2ccc(Cl)cc2Cl)o1` the Activity (Digitaria sanguinalis [1]) was “inactive”, the Activity (Amaranthus viridis [2]) was “inactive” and the Activity (Digitaria sanguinalis [3]) was “inactive”. The Activity (Alternaria solani) was 60 mm, the Activity (Plasmopara viticola) was 100% and the Activity (Fusarium sp.) was 79 mm. For the same molecule, the Activity (Parthenium hysterophorus [4]) was “inactive”, the Activity (Euphorbia hirta [5]) was “inactive” and the Activity (Amaranthus viridis [6]) was “inactive”. For the same molecule, the Activity (Cynodon dactylon [7]) was “inactive”.
In the case of `Fc1ccc(NCn2nc(COc3ccc(Cl)cc3Cl)n(/N=C/c3ccc(-c4ccc(Cl)cc4Cl)o3)c2=S)cc1Cl`, the Activity (Digitaria sanguinalis [1]) is reported as “inactive”, the Activity (Amaranthus viridis [2]) is reported as “inactive” and the Activity (Digitaria sanguinalis [3]) is reported as “inactive”. It also gave an Activity (Alternaria solani) of 51 mm, an Activity (Plasmopara viticola) of 100% and an Activity (Fusarium sp.) of 73 mm. The Activity (Parthenium hysterophorus [4]) was “inactive”, the Activity (Euphorbia hirta [5]) was “inactive” and the Activity (Amaranthus viridis [6]) was “inactive”. For the same molecule, the Activity (Cynodon dactylon [7]) was “inactive”.
In the case of `C[n+]1ccc(-c2cc[n+](C)cc2)cc1`, the Activity (Amaranthus viridis [13]) is reported as “Active”, the Activity (Cynodon dactylon [14]) is reported as “Active” and the Activity (Digitaria sanguinalis [15]) is reported as “Active”. For the same molecule, the Activity (Euphorbia hirta [16]) was “Active” and the Activity (Parthenium hysterophorus [17]) was “Active”.
In the case of `CCCCC(O)(Cn1cncn1)c1ccc(Cl)cc1Cl` (stereo not given) [HEXACONAZOLE], the Activity (Fusarium sp.) is reported as 8 mm.
With `CCC(CC)Nc1c([N+](=O)[O-])cc(C)c(C)c1[N+](=O)[O-]` the Activity (Amaranthus viridis [18]) was “Active” and the Activity (Digitaria sanguinalis [19]) was “Active”.
With `S=c1[nH]nc(COc2ccccc2Cl)n1/N=C/c1ccc(-c2ccc(Cl)cc2Cl)o1` the Activity (Digitaria sanguinalis [1]) was “inactive”, the Activity (Amaranthus viridis [2]) was “inactive” and the Activity (Digitaria sanguinalis [3]) was “inactive”. For the same molecule, the Activity (Alternaria solani) was 66 mm, the Activity (Plasmopara viticola) was 100% and the Activity (Fusarium sp.) was 77.5 mm. For the same molecule, the Activity (Parthenium hysterophorus [4]) was “inactive”, the Activity (Euphorbia hirta [5]) was “inactive” and the Activity (Amaranthus viridis [6]) was “inactive”. The Activity (Cynodon dactylon [7]) was “inactive”.
For `S=c1[nH]nc(COc2ccc(Cl)cc2Cl)n1/N=C/c1ccc(-c2ccc(Cl)cc2Cl)o1`, the Activity (Digitaria sanguinalis [1]) was “inactive”, the Activity (Amaranthus viridis [2]) was “inactive” and the Activity (Digitaria sanguinalis [3]) was “inactive”. The Activity (Alternaria solani) was 58 mm, the Activity (Plasmopara viticola) was 100% and the Activity (Fusarium sp.) was 80 mm. For the same molecule, the Activity (Parthenium hysterophorus [4]) was “inactive”, the Activity (Euphorbia hirta [5]) was “inactive” and the Activity (Amaranthus viridis [6]) was “inactive”. The Activity (Cynodon dactylon [7]) was “inactive”.
`CCNc1nc(Cl)nc(NC(C)C)n1` was tested, and the Activity (Amaranthus viridis [20]) was “Active” and the Activity (Digitaria sanguinalis [21]) was “Active”.
